Laboratory results reported in patent publication US10752612B2, “PLK4 inhibitors” (LUDWIG INSTITUTE FOR CANCER RESEARCH LTD, priority 2015, dated 2020).

Biological target: T1, human Plk4 kinase domain (aa 2-275) (Homo sapiens, UniProt O00444)
T1 construct: purified 6×His-tagged human Plk4 kinase domain (aa 2-275); 6xHis; made in house; host or cells: E. coli
T1 sequence (O00444 2-275): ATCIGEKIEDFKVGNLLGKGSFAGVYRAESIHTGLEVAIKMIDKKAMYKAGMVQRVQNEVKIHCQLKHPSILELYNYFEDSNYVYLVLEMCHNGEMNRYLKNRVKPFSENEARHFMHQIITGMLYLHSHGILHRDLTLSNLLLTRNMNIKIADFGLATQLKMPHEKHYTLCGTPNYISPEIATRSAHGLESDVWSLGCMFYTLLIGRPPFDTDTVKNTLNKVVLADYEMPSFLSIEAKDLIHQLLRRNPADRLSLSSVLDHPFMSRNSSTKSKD
Experiment: Plk4 kinase assay (ADP-Glo)
Type: biochemical
Details: Table 1
Experimental: Kinase assays. […] The Plk4 concentration in the final reaction was 2.5-10 nM with a final pH of 8.0. […] Reactions were allowed to proceed for 4-16 hours at 25° C. Detection was performed using ADP-Glo reagent (Promega), following manufacturer's instructions. Luminescence was measured on an Infinite M1000 plate reader (Tecan). Data were fit using Prism (GraphPad) and Kis were calculated from IC50 data using the Cheng and Prusoff equation (37) or the Copeland formalism for tight-binding inhibitors (38).

Compound	IC50
COc1c(Nc2cc(C)[nH]n2)nc(Sc2ccc(S(=O)(=O)Cc3cccnc3)cc2)nc1N1CCN(CCN(C)C)CC1	< 1000 nM
COc1c(Nc2cc(C)[nH]n2)nc(Sc2ccc(S(=O)(=O)Cc3cccs3)cc2)nc1N1CCN(CCN(C)C)CC1	< 1000 nM
COc1c(Nc2cc(C)[nH]n2)nc(Sc2ccc(S(C)(=O)=O)cc2)nc1C1CCN(CCN(C)C)CC1	100 to 1000 nM
CCOc1c(Nc2cc(C)[nH]n2)nc(Sc2ccc(NC(=O)C3CC3)cc2)nc1N1CCN(CCOC)CC1	100 to 1000 nM
CC(=O)N1CCN(c2nc(Sc3ccc(NC(=O)C4CCCC4)cc3)nc(Nc3cc(C)[nH]n3)c2C)CC1	< 1000 nM
COc1c(Nc2cc(C)[nH]n2)nc(Sc2ccc(NC(C)=O)cc2)nc1N1CCOC[C@H]1C	< 1000 nM
COc1c(Nc2cc(C)[nH]n2)nc(Sc2ccc(S(=O)(=O)C(C)(C)c3cccc([N+](=O)[O-])c3F)cc2F)nc1N1CCN(C(C)=O)CC1	< 1000 nM
COc1c(Nc2cc(C)[nH]n2)nc(Sc2ccc(S(=O)(=O)C(C)(C)c3cccnc3)cc2)nc1N1CCN(CCN(C)C)CC1	< 1000 nM
COC(=O)CC1CCN(c2nc(Sc3ccc(NC(C)=O)cc3)nc(Nc3cc(C)[nH]n3)c2OC)CC1	< 1000 nM
CCOc1c(Nc2cc(C)[nH]n2)nc(Sc2ccc(S(=O)(=O)CC)cc2)nc1N1CCNCC1	< 1000 nM
COc1c(Nc2cc(C)[nH]n2)nc(Sc2ccc(S(=O)(=O)Cc3cccc([N+](=O)[O-])c3)cc2)nc1N1CCOCC1	< 1000 nM
COc1c(Nc2cc(C)[nH]n2)nc(Sc2ccc(S(=O)(=O)Cc3ccccc3)cc2)nc1N1CCOC[C@H]1C	< 1000 nM
COc1ccc(CS(=O)(=O)c2ccc(Sc3nc(Nc4cc(C)[nH]n4)c(OC)c(N4CCN(CCN(C)C)CC4)n3)cc2)cc1	< 1000 nM
COc1c(Nc2cc(C)[nH]n2)nc(Sc2ccc(S(=O)(=O)Cc3cccc([N+](=O)[O-])c3F)cc2F)nc1N1CCN(CCN(C)C)CC1	< 1000 nM
CCOc1c(Nc2cc(C)[nH]n2)nc(Sc2ccc(NC(=O)C3CC3)cc2)nc1N(C)CCOC	100 to 1000 nM
CC(=O)Nc1ccc(Sc2nc(Nc3cc(C)[nH]n3)c(Cl)c(N3CCN(C)CC3)n2)cc1	< 1000 nM
COc1c(Nc2cc(C)[nH]n2)nc(Sc2ccc(NC(=O)C3CC3)cc2)nc1N1CCN(CC2CC2)CC1	< 1000 nM
COc1c(Nc2cc(C)[nH]n2)nc(Sc2ccc(NC(=O)C3CC3)cc2)nc1N1CCNCC1	< 1000 nM
COc1c(Nc2cc(C)[nH]n2)nc(Sc2ccc(S(=O)(=O)Cc3cccc([N+](=O)[O-])c3C#N)cc2)nc1N1CCN(CCN(C)C)CC1	< 1000 nM
COc1c(Nc2cc(C)[nH]n2)nc(Sc2ccc(S(=O)(=O)Cc3c(F)ccc(F)c3F)cc2F)nc1N1CCN(CCN(C)C)CC1	< 1000 nM
COc1c(Nc2cc(C)[nH]n2)nc(Sc2ccc(S(=O)(=O)Cc3ccccc3C(=O)N(C)C)cc2)nc1N1CCN(CCN(C)C)CC1	< 1000 nM
COc1c(Nc2cc(C)[nH]n2)nc(Sc2ccc(NC(=O)C3CC3)cc2)nc1N1CCN(C)CC1	< 1000 nM
COc1c(Nc2cc(C)[nH]n2)nc(Sc2ccc(S(=O)(=O)C(C)(C)c3cccc([N+](=O)[O-])c3F)cc2F)nc1N1CCC(CCN(C)C)CC1	< 1000 nM
CCOc1c(Nc2cc(C)[nH]n2)nc(Sc2ccc(NC(=O)C3CCCC3)cc2)nc1N1CCNCC1	100 to 1000 nM
COc1c(Nc2cc(C)[nH]n2)nc(Sc2ccc(NC(C)=O)cc2)nc1N1CCN(CCN(C)Cc2ccccc2)CC1	< 1000 nM

Compound	IC50
CNC(=O)Cc1cc(Nc2nc(SC)nc(N3CCN(CCN(C)C)CC3)c2OC)n[nH]1	> 1000 nM
COc1c(Nc2cc(C)[nH]n2)nc(Sc2ccc(S(=O)(=O)C(C)(C)c3cc(F)cc(Cl)c3F)cc2F)nc1N1CCOCC1	< 1000 nM
Cc1cc(Nc2nc(Sc3ccccc3)nc(N3CCC(O)CC3)c2C)n[nH]1	< 1000 nM
CC(=O)Nc1ccc(Sc2nc(Nc3cc(C)[nH]n3)cc(N3CCN(CCN(C)C)CC3C)n2)cc1 (stereo not shown)	< 1000 nM
Cc1cc(Nc2nc(Sc3ccc(NC(=O)C4CC4)cc3)nc(N(C)C(C)C)c2C)n[nH]1	< 1000 nM
CCS(=O)(=O)c1ccc(Sc2nc(Nc3cc(C)[nH]n3)c(OC)c(N3CCN(CCN4CCN(C)CC4)CC3)n2)cc1	< 1000 nM
COC(=O)CN1CCN(c2nc(Sc3ccc(NC(C)=O)cc3)nc(Nc3cc(C)[nH]n3)c2OC)CC1	< 1000 nM
COc1cccc(CS(=O)(=O)c2ccc(Sc3nc(Nc4cc(C)[nH]n4)c(OC)c(N4CCN(CCN(C)C)CC4)n3)cc2)c1	< 1000 nM
Cc1cc(Nc2cc(N3CCN(CCN(C)C)CC3)nc(Sc3ccc(S(=O)(=O)Cc4ccccc4)cc3)n2)n[nH]1	< 1000 nM
COc1c(Nc2cc(C)[nH]n2)nc(Sc2ccc(NC(C)=O)cc2)nc1N1CCN(CCN2CCNCC2)CC1	< 1000 nM
COc1c(Nc2cc(C)[nH]n2)nc(Sc2ccc(S(=O)(=O)Cc3cccc(C#N)c3F)cc2F)nc1N1CCCCC1	< 1000 nM
CCOc1c(Nc2cc(C)[nH]n2)nc(Sc2ccc(NC(=O)C3CCCC3)cc2)nc1N1CCN(C2CCNCC2)CC1	100 to 1000 nM
COc1c(Nc2cc(C)[nH]n2)nc(Sc2ccc(S(=O)(=O)Cc3ccccc3NC(C)=O)cc2)nc1N1CCN(CCN(C)C)CC1	< 1000 nM
CCSc1c(Nc2cc(C)[nH]n2)nc(Sc2ccc(NC(=O)C3CC3)cc2)nc1N1CCN(C)CC1	100 to 1000 nM
COc1c(Nc2cc(C)[nH]n2)nc(Sc2ccc(S(=O)(=O)Cc3cccc(C(=O)N(C)C)c3)cc2)nc1N1CCN(CCN(C)C)CC1	< 1000 nM
COCC(=O)N1CCN(c2nc(Sc3ccc(NC(=O)C4CCCC4)cc3)nc(Nc3cc(C)[nH]n3)c2C)CC1	< 1000 nM
COc1c(Nc2cc(C)[nH]n2)nc(Sc2ccc(NC(C)=O)cc2)nc1N1CCN(CCNC(=N)N)CC1	< 1000 nM
CCOc1c(Nc2cc(C)[nH]n2)nc(Sc2ccc(NC(=O)C3CCCC3)cc2)nc1N(C)C	100 to 1000 nM
CNc1nc(Sc2ccc(NC(=O)C3CC3)cc2)nc(Nc2cc(C)[nH]n2)c1C	< 1000 nM
CCc1c(C)nc(Sc2ccc(NC(=O)C3CC3)cc2)nc1Nc1cc(C)[nH]n1	> 1000 nM
COc1c(Nc2cc(C)[nH]n2)nc(Sc2ccc(S(=O)(=O)Cc3ncco3)cc2)nc1N1CCN(CCN(C)C)CC1	< 1000 nM
COc1c(Nc2cc(C)[nH]n2)nc(Sc2ccc(S(=O)(=O)C(C)(C)c3cccc([N+](=O)[O-])c3F)cc2F)nc1N1CCN(CC(=O)N(C)C)CC1	< 1000 nM
COc1c(Nc2cc(C)[nH]n2)nc(Sc2ccc(S(=O)(=O)Cc3ccccc3)cc2)nc1N1CCC(CCN(C)C)CC1	< 1000 nM
CC(=O)Nc1ccc(Sc2nc(Nc3cc(C)[nH]n3)c(C)c(N3CCC(O)CC3)n2)cc1	< 1000 nM
Cc1cc(Nc2nc(Sc3ccc(N(C)C)cc3)nc(N3CCCCC3)c2C)n[nH]1	< 1000 nM

Compound	IC50
COc1c(Nc2cc(C)[nH]n2)nc(Sc2ccc(/C=C/c3cccc([N+](=O)[O-])c3F)cc2F)nc1N1CCOCC1	< 1000 nM
COc1c(Nc2cc(C)[nH]n2)nc(Sc2ccc(S(=O)(=O)Cc3ccccc3)cc2)nc1N1CCN(CCN2CCCCC2)CC1	< 1000 nM
CCOc1c(Nc2cc(C)[nH]n2)nc(Sc2ccc(NC(=O)C3CC3)cc2)nc1N1CCN(C(=O)COC)CC1	100 to 1000 nM
COc1c(Nc2cc(C)[nH]n2)nc(Sc2ccc(NC(C)=O)cc2)nc1N1CCN(CCN2CCCC2)CC1	< 1000 nM
CC(=O)Nc1ccc(Sc2nc(Nc3cc(C)[nH]n3)c(C)c(N3CCC(CCN(C)C)CC3)n2)cc1	< 1000 nM
COc1c(Nc2cc(C)[nH]n2)nc(Sc2ccc(NC(C)=O)cc2)nc1N1CCC(OCCN(C)C)CC1	100 to 1000 nM
COc1c(Nc2cc(C)[nH]n2)nc(Sc2ccc(N)cc2)nc1N1CCN(CCN(C)C)CC1	100 to 1000 nM
CNCCN1CCN(c2nc(Sc3ccc(NC(=O)C4CC4)cc3)nc(Nc3cc(C)[nH]n3)c2OC)CC1	< 1000 nM
Cc1cc(Nc2nc(Sc3ccc(NC(=O)C4CC4)cc3)nc(N3CCN(C(C)C)CC3)c2C)n[nH]1	< 1000 nM
COc1c(Nc2cc(C)[nH]n2)nc(Sc2ccc(S(=O)(=O)Cc3cccc(C#N)c3F)cc2F)nc1N1CCN(CCN(C)C)CC1	< 1000 nM
COc1c(Nc2cc(C)[nH]n2)nc(Sc2ccc(S(=O)(=O)Cc3cccc([N+](=O)[O-])c3F)cc2F)nc1N1CCOC[C@@H]1CO	< 1000 nM
COc1c(Nc2cc(C)[nH]n2)nc(Sc2ccc(NC(C)=O)cc2)nc1N1CCN(C(=O)CN(C)C)CC1	< 1000 nM
COCCNc1nc(Sc2ccc(NC(=O)C3CCCC3)cc2)nc(Nc2cc(C)[nH]n2)c1OC	< 1000 nM
CCOc1c(Nc2cc(C)[nH]n2)nc(Sc2ccc(NC(=O)C3CC3)cc2)nc1N1CCOCC1	< 1000 nM
COc1c(Nc2cc(C)[nH]n2)nc(Sc2ccc(C(=O)Nc3cccc([N+](=O)[O-])c3F)cc2F)nc1N1CCOCC1	< 1000 nM
COc1c(Nc2cc(C)[nH]n2)nc(Sc2ccc(S(C)(=O)=O)cc2)nc1N1CCN(CCN(C)C)CC1	< 1000 nM
CCOc1c(Nc2cc(C)[nH]n2)nc(Sc2ccc(NC(C)=O)cc2)nc1N(CC)CC	100 to 1000 nM
COc1c(Nc2cc(C)[nH]n2)nc(Sc2ccc(S(=O)(=O)C(C)(C)c3cccc(Cl)c3F)cc2F)nc1N1CCOCC1	< 1000 nM
COc1c(Nc2cc(C)[nH]n2)nc(Sc2ccc(S(=O)(=O)Cc3ccccc3)cc2)nc1N1CCN(Cc2ccccc2)CC1	< 1000 nM
COc1c(Nc2cc(C)[nH]n2)nc(Sc2ccc(NC(C)=O)cc2)nc1N1CCN(CCN2CCOCC2)CC1	< 1000 nM
COc1c(Nc2cc(C)[nH]n2)nc(Sc2ccc(S(=O)(=O)Cc3cccc(Br)c3F)cc2F)nc1N1CCCCC1	< 1000 nM
CC(=O)Nc1ccc(Sc2nc(Nc3cc(C)[nH]n3)c(C)c(N3CCOC[C@@H]3C)n2)cc1	< 1000 nM
CCOc1c(Nc2cc(C)[nH]n2)nc(Sc2ccc(NC(=O)C3CC3)cc2)nc1N1CCCCC1	100 to 1000 nM
